Results from the NIST ThermoML archive (doi:10.1021/je200609g).
Numbers after ± are expanded uncertainties.

Conditions: 101.33 kPa, Liquid; for speed of sound: Sing-around technique in a fixed-path interferometer; for mass density: Vibrating tube method

SMILES | speed of sound (278.15 K) [m/s] | mass density (278.15 K) [kg/m3] | speed of sound (288.15 K) [m/s] | mass density (288.15 K) [kg/m3] | speed of sound (298.15 K) [m/s] | mass density (298.15 K) [kg/m3] | speed of sound (308.15 K) [m/s] | mass density (308.15 K) [kg/m3] | speed of sound (318.15 K) [m/s] | mass density (318.15 K) [kg/m3] | speed of sound (328.15 K) [m/s] | mass density (328.15 K) [kg/m3]
C1CCOC1 [tetrahydrofuran] | 1375 ± 0.87 | 903.71 ± 0.09 | 1325.8 ± 0.85 | 892.92 ± 0.09 | 1277.4 ± 0.83 | 882.02 ± 0.1 | 1229.6 ± 0.81 | 871 ± 0.1 | 1182.4 ± 0.8 | 859.84 ± 0.11 |  | 
CCn1cc[n+](C)c1.O=S(=O)([O-])C(F)(F)F [1-ethyl-3-methylimidazolium trifluoromethanesulfonate] | 1482.2 ± 2.1 | 1400.51 ± 1.8 | 1458.3 ± 2.1 | 1392.02 ± 1.8 | 1435.6 ± 2.1 | 1383.58 ± 1.7 | 1413.2 ± 2.1 | 1375.19 ± 1.7 | 1391.3 ± 2.1 | 1366.86 ± 1.7 | 1369.7 ± 2.1 | 1358.59 ± 1.7
CC(C)O [propan-2-ol] | 1208.5 ± 0.74 | 797.34 ± 0.12 | 1173.1 ± 0.73 | 789.22 ± 0.13 | 1138.2 ± 0.72 | 780.89 ± 0.13 | 1103.2 ± 0.71 | 772.28 ± 0.13 | 1068.1 ± 0.7 | 763.32 ± 0.14 | 1032.6 ± 0.69 | 753.95 ± 0.14
